In patent US20120016009A1, “Optimized Methods For Delivery Of DSRNA Targeting The PCSK9 Gene” (priority 2008, published 2012):
In the oligonucleotide strings, read from the 5' end, every base follows the letter of its sugar. An asterisk marks phosphorothioate; unmarked linkages are phosphodiester. Other units and linkages are bracketed, terminal groups are in braces. A string of capitals states the bases alone. d = 2'-deoxy (DNA); m = 2'-O-methyl; r = 2'-OH (RNA)

Tested on: PCSK9 mRNA
Assay: PCSK9 siRNA screening in HepG2 cells (lipofectamine 2000 transfection, PCSK9 mRNA by Quantigene, normalized to GAP-DH)
Assay type: cell-based, human
Details: for Mean percent remaining mRNA transcript at siRNA concentration/in cell type 30 nM/HepG2: 30 nM siRNA; for Mean percent remaining mRNA transcript at siRNA concentration/in cell type 100 nM/HepG2: 100 nM siRNA; for Mean percent remaining mRNA transcript at siRNA concentration/in cell type 3 nM/HepG2: 3 nM siRNA
Outline: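 PCSK9 silencing was assessed in HepG2 cells by lipofectamine 2000 siRNA transfection in 96-well plates. Twenty-four hours later, lysates were analyzed with the Quantigene Explore Kit, with PCSK9 signal normalized to GAP-DH. Eight datapoints were collected per siRNA, and remaining transcript was expressed as a percentage of cells treated with an unrelated control siRNA duplex.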

Substance	Mean percent remaining mRNA transcript at siRNA concentration/in cell type 30 nM/HepG2 [%]	Mean percent remaining mRNA transcript at siRNA concentration/in cell type 100 nM/HepG2 [%]	Mean percent remaining mRNA transcript at siRNA concentration/in cell type 3 nM/HepG2 [%]	IC50 [nM]
AD-9584: PCSK9 siRNA (sense rCrCrCrUrGrGrCrGrGrGrUrGrGrGrUrArCrArGdT*dT; antisense rCrUrGrUrArCrCrCrArCrCrCrGrCrCrArGrGrGdT*dT)	68	52		
AD-9587: PCSK9 siRNA (sense rArCrArUrUrUrArUrCrUrUrUrUrGrGrGrUrCrUdT*dT; antisense rArGrArCrCrCrArArArArGrArUrArArArUrGrUdT*dT)	63		49	
AD-9639: PCSK9 siRNA (sense rGrUrGrCrUrGrArGrGrCrCrArCrGrArGrGrUrCdT*dT; antisense rGrArCrCrUrCrGrUrGrGrCrCrUrCrArGrCrArCdT*dT)	30		35	
AD-9574: PCSK9 siRNA (sense rCrUrGrCrCrArArGrGrGrArArGrGrGrCrArCrGdT*dT; antisense rCrGrUrGrCrCrCrUrUrCrCrCrUrUrGrGrCrArGdT*dT)	74			
AD-9530: PCSK9 siRNA (sense rArCrCrGrGrGrCrGrGrArUrGrArArUrArCrCrAdT*dT; antisense rUrGrGrUrArUrUrCrArUrCrCrGrCrCrCrGrGrUdT*dT)	75			
AD-9737: PCSK9 siRNA (sense mUmCmCmUrArGrAmCrAmCmCrArGmCrAmUrAmCrAdT*dT; antisense rUrGmUrArUrGrCrUrGrGrUrGrUrCmUrArGrGrAdT*dT)	68			
AD-9533: PCSK9 siRNA (sense rGrArCrCrArCrCrGrGrGrArArArUrCrGrArGrGdT*dT; antisense rCrCrUrCrGrArUrUrUrCrCrCrGrGrUrGrGrUrCdT*dT)	100			
AD-9699: PCSK9 siRNA (sense rAmUrGrGmUmCrAmCmCrGrAmCmUmUmCrGrArGrAdT*dT; antisense rUrCrUrCrGrArArGrUrCrGrGrUrGrArCmCrArUdT*dT)	32		36	2.5
AD-9671: PCSK9 siRNA (sense rArGmUmCrArArGrGrArGmCrAmUrGrGrArAmUmCdT*dT; antisense rGrArUrUrCmCrArUrGrCrUrCrCrUrUrGrArCrUdT*dT)	15		33	2.5
AD-9601: PCSK9 siRNA (sense rArGrGrGrUrCrArUrGrGrUrCrArCrCrGrArCrUdT*dT; antisense rArGrUrCrGrGrUrGrArCrCrArUrGrArCrCrCrUdT*dT)	111			
AD-9710: PCSK9 siRNA (sense mCmCmCmUrGrGmCrGrGrGmUrGrGrGmUrAmCrArGdT*dT; antisense rCrUrGmUrArCrCmCrArCrCrCrGrCmCrArGrGrGdT*dT)	111			
AD-9564: PCSK9 siRNA (sense rUrCrArUrUrGrGrUrGrCrCrUrCrCrArGrCrGrAdT*dT; antisense rUrCrGrCrUrGrGrArGrGrCrArCrCrArArUrGrAdT*dT)	120			
AD-9525: PCSK9 siRNA (sense rGrGrArGrUrUrUrArUrUrCrGrGrArArArArGrCdT*dT; antisense rGrCrUrUrUrUrCrCrGrArArUrArArArCrUrCrCdT*dT)	53			
AD-9659: PCSK9 siRNA (sense rGrAmCmCrAmCmCrGrGrGrArArAmUmCrGrArGrGdT*dT; antisense rCrCrUrCrGrArUrUrUrCrCrCrGrGrUrGrGrUrCdT*dT)	88			
AD-9632: PCSK9 siRNA (sense rCrArArCrUrUrUrGrGrCrCrGrCrUrGrUrGrUrGdT*dT; antisense rCrArCrArCrArGrCrGrGrCrCrArArArGrUrUrGdT*dT)	34			
AD-9625: PCSK9 siRNA (sense rCrUrGrGrUrGrGrArGrGrUrGrUrArUrCrUrCrCdT*dT; antisense rGrGrArGrArUrArCrArCrCrUrCrCrArCrCrArGdT*dT)	88	58		
AD-9741: PCSK9 siRNA (sense mUmUmCmCrGrGrGrAmCrGrAmUrGmCmCmUrGmCmCdT*dT; antisense rGrGmCrArGrGmCrArUrCrGrUrCrCrCrGrGrArAdT*dT)	130			
AD-9538: PCSK9 siRNA (sense rCrCrGrGrGrCrGrGrArUrGrArArUrArCrCrArGdT*dT; antisense rCrUrGrGrUrArUrUrCrArUrCrCrGrCrCrCrGrGdT*dT)	80	79		
AD-9641: PCSK9 siRNA (sense rGrGmUrAmCmCrGrGrGmCrGrGrAmUrGrArAmUrAdT*dT; antisense mUrArUrUmCrArUrCrCrGrCrCrCrGrGmUrArCrCdT*dT)	92			
AD-9668: PCSK9 siRNA (sense rAmUmCrGrArGrGrGmCrArGrGrGmUmCrAmUrGrGdT*dT; antisense rCmCrArUrGrArCrCrCrUrGrCrCrCrUrCrGrArUdT*dT)	92			
AD-9615: PCSK9 siRNA (sense rUrUrCrCrGrGrGrArCrGrArUrGrCrCrUrGrCrCdT*dT; antisense rGrGrCrArGrGrCrArUrCrGrUrCrCrCrGrGrArAdT*dT)	116			
AD-9664: PCSK9 siRNA (sense mCmCrGrGrGmCrGrGrAmUrGrArAmUrAmCmCrArGdT*dT; antisense rCrUrGrGmUrArUrUmCrArUrCrCrGrCrCrCrGrGdT*dT)	53			
AD-9649: PCSK9 siRNA (sense mCrArGmCmCrArGrGrAmUmUmCmCrGmCrGmCrGmCdT*dT; antisense rGrCrGrCrGrCrGrGrArArUrCrCrUrGrGrCrUrGdT*dT)	60			
AD-9764: PCSK9 siRNA (sense mCmUrGrGrArGmUmUmUrAmUmUmCrGrGrArArArAdT*dT; antisense rUrUrUrUrCrCrGrArAmUrArArArCrUrCmCrArGdT*dT)	112			
AD-9593: PCSK9 siRNA (sense rCrArGrGrGrUrCrArUrGrGrUrCrArCrCrGrArCdT*dT; antisense rGrUrCrGrGrUrGrArCrCrArUrGrArCrCrCrUrGdT*dT)	55			
AD-9594: PCSK9 siRNA (sense rGrCrUrGrCrCrGrGrCrArArCrUrUrCrCrGrGrGdT*dT; antisense rCrCrCrGrGrArArGrUrUrGrCrCrGrGrCrArGrCdT*dT)	95	80		
AD-9605: PCSK9 siRNA (sense rUrGrGrUrGrArArGrArUrGrArGrUrGrGrCrGrAdT*dT; antisense rUrCrGrCrCrArCrUrCrArUrCrUrUrCrArCrCrAdT*dT)	27		31	0.27
